Laboratory results: the NIST ThermoML archive (doi:10.1016/j.jct.2015.11.005)
± gives the expanded uncertainty stated by the source.

Details: Crystal; visual observation

## COc1ccc2[nH]c([S+]([O-])Cc3ncc(C)c(OC)c3C)nc2c1 (stereo unspecified) [Omeprazole]
  Normal melting temperature: 156.00 ± 2.1 °C
